Reference: patent US9617225B2 (VIROSTATICS SRL, priority 2012, dated 2017)
Read-outs that look alike come from different tables or passages of the source.

Experiments:
[1] = molecular target: human CDK9/CyclinT kinase complex (Homo sapiens (Human), UniProt P50750); assay: In Vitro CDK9/CyclinT Assay (IMAP fluorescent polarization); format: biochemical
How it was run: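 Phosphorylation of 400 nM TAMRA-Rbtide (15-mer retinoblastoma-derived peptide) by 5 nM CDK9/CyclinT with 12 μM ATP (=Kmapp) in 20 mM MOPS pH 7, 1 mM DTT, 10 mM MgCl2, 0.01% Tween 20. Reaction run 1 hour at room temperature, stopped with IMAP beads; read by fluorescence polarization.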

[2] = tested on: laboratory strain of HIV-1; assay: Antiviral Activity Against HIV (AV), p24 in infected activated primary T cells; format: cell-based; details: for antiviral and antiproliferative activity and cytotoxicity profile: summary in words; for IC50: read-out: AV50, Table 5
Description: Antiviral Activity Against HIV (AV)
Activated primary T cells are infected with a laboratory strain of HIV-1, then cultured and exposed to different concentrations of the test compounds. HIV replication is analysed by measuring the viral protein p24 and expressed as percentage of untreated control. Inhibition of viral replication (AV) is then calculated (AV=100 minus the % p24 compared to control, AV of control=0%). Inhibitory concentration 50% for antiviral activity (AV50) is calculated.

Primary T cells = assay: Cytotoxicity, viability by flow cytometry; format: cell-based
Description: Primary T cells are cultured and treated with different concentrations of the test compound. Viability is analysed by measuring through flow cytometry based techniques the percentage of viable cells, compared to untreated control=100%).

Sequence of human CDK9/CyclinT kinase complex (P50750 whole entry): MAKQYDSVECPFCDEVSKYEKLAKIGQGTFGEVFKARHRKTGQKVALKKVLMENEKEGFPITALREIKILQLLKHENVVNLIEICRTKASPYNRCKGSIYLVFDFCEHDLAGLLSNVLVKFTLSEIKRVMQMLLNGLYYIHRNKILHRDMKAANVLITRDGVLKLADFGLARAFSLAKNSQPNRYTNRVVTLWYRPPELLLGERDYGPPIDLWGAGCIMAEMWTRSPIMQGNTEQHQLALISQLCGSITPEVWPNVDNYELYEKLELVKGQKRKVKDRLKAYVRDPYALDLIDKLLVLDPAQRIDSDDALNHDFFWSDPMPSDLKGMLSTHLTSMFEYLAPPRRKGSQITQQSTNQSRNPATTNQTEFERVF
Sequence of human CDK9/CyclinT kinase complex (O60563 whole entry partner): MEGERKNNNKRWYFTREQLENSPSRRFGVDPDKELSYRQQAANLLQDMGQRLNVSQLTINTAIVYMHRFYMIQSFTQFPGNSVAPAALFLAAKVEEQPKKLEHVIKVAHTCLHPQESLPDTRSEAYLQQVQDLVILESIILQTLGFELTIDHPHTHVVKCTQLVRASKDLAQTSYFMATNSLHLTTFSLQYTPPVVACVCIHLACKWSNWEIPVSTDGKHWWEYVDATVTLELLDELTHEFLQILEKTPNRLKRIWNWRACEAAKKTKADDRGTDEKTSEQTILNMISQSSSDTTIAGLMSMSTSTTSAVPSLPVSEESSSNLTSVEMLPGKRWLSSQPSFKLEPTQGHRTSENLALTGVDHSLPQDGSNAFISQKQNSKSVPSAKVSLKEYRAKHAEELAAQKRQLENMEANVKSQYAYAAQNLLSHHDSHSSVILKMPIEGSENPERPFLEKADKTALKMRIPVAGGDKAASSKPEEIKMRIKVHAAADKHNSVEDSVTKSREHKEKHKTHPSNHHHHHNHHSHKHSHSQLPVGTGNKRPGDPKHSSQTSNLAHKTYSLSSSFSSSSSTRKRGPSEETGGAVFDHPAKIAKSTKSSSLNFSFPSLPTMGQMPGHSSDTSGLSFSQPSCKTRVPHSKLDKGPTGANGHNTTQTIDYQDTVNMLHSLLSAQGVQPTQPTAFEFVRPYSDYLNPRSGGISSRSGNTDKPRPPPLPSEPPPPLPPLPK

| Structure (SMILES) | IC50 ([1]; Table 1) | antiviral and antiproliferative activity and cytotoxicity profile [2] | TD50 (Primary T cells) | IC50 ([1]; Table 5) | IC50 [2] | IC50 [1] |
| --- | --- | --- | --- | --- | --- | --- |
| CNS(=O)(=O)Nc1cc(Nc2cc(-c3ccccc3OC)ncn2)ccc1OC [Example 10, (2-Methoxy-5-(6-(2-methoxyphenyl)pyrimidin-4-ylamino)phenyl)(methylsulfamoyl)amine] | < 100 nM | good antiviral and antiproliferative activity and a good cytotoxicity profile | 3 µM |  |  |  |
| COc1ccccc1-c1cc(Nc2ccc(OC)c([N+](=O)[O-])c2)ncn1 [Example 11, N-(4-Methoxy-3-nitrophenyl)-6-(2-methoxyphenyl)pyrimidin-4-amine] | < 1000 nM |  | >1.5 µM | < 1000 nM | > 1500 nM |  |
| COc1ccccc1-c1cc(Nc2ccc(O)c([N+](=O)[O-])c2)ncn1 [Example 12, 4-(6-(2-methoxyphenyl)pyrimidin-4-ylamino)-2-nitrophenol] | < 1000 nM |  | >1.5 µM | < 1000 nM | > 1500 nM |  |
| COc1ccc(Nc2cc(-c3ccccc3OC)ncn2)cc1NS(=O)(=O)NC1CCCCC1 [Example 13, (2-Methoxy-5-(6-(2-methoxyphenyl)pyrimidin-4-ylamino)phenyl) (cyclohexylsulfamoyl)amine] | < 1000 nM | good antiviral and antiproliferative activity and a good cytotoxicity profile | 5 µM |  |  |  |
| COc1ccccc1-c1cc(Nc2ccc(Cl)c(Cn3cnc4ccccc43)c2)ncn1 [Example 16, N-(3-((1H-benzo[d]imidazol-1-yl)methyl)-4-chlorophenyl)-6-(2-methoxyphenyl)pyrimidin-4-amine] |  | good antiviral and antiproliferative activity and a good cytotoxicity profile | 1.5 µM |  |  | < 100 nM |
| COc1ccc(Nc2cc(-c3ccccc3OC)ncn2)cc1OC(=O)C(C)(C)C [Example 26, 2-methoxy-5-(6-(2-methoxyphenyl)pyrimidin-4-ylamino)phenyl pivalate] |  | good antiviral and antiproliferative activity and a good cytotoxicity profile | 6 µM |  |  | < 10000 nM |
| COc1ccc(Nc2cc(-c3ccccc3OC)ncn2)cc1Cn1cnc2ccccc21 [Example 31, N-(3-((1H-Benzo[d]imidazol-1-yl)methyl)-4-methoxyphenyl)-6-(2-methoxyphenyl)pyrimidin-4-amine] |  | good antiviral and antiproliferative activity and a good cytotoxicity profile | 1.8 µM |  |  | < 100 nM |
| COc1ccc(Nc2cc(-c3ccccc3OC)ncn2)cc1O [Example 32, 2-Methoxy-5-(6-(2-methoxyphenyl)pyrimidin-4-ylamino)phenol] | < 100 nM | good antiviral and antiproliferative activity and a good cytotoxicity profile | 20 µM |  |  |  |
| COc1ccc(Nc2cc(-c3ccccc3OC)ncn2)cc1N [Example 41, 4-Methoxy-N1-(6-(2-methoxyphenyl)pyrimidin-4-yl)benzene-1,3-diamine] |  | good antiviral and antiproliferative activity and a good cytotoxicity profile | 8.5 µM |  |  | < 1000 nM |
| COc1ccccc1-c1cc(Nc2ccc(N(C)C)c(Cn3cnc4ccccc43)c2)ncn1 [Example 42, 2-((1H-Benzo[d]imidazol-1-yl)methyl)-N4-(6-(2-methoxyphenyl)pyrimidin-4-yl)-N1,N1-dimethylbenzene-1,4-diamine] |  |  | 4 µM |  | > 5000 nM | < 1000 nM |
| COc1ccc(Nc2cc(-c3ccccc3OC)ncn2)cc1CN [Example 43, N-(3-(Aminomethyl)-4-methoxyphenyl)-6-(2-methoxyphenyl)pyrimidin-4-amine] |  | good antiviral and antiproliferative activity and a good cytotoxicity profile | 2 µM |  | > 1000 nM | < 1000 nM |
| COc1ccc(Nc2cc(-c3ccccc3OC)ncn2)cc1C(N)=O [Example 45, 2-methoxy-5-(6-(2-methoxyphenyl)pyrimidin-4-ylamino)benzamide] |  | good antiviral and antiproliferative activity and a good cytotoxicity profile | 15 µM |  |  | < 100 nM |
| COc1ccc(Nc2cc(-c3ccccc3OC)ncn2)cc1C(=O)O [Example 49, 2-Methoxy-5-[6-(2-methoxy-phenyl)-pyrimidin-4-ylamino]-benzoic acid] | < 1000 nM |  | >10 µM | < 1000 nM | > 10000 nM |  |
| COc1cc(Nc2cc(-c3ccccc3OC)ncn2)ccc1N [Example 59, 2-Methoxy-N^4-[6-(2-methoxy-phenyl)-pyrimidin-4-yl]-benzene-1,4-diamine] | < 1000 nM |  | >2 µM | < 1000 nM | > 2000 nM |  |
| CCOc1ccccc1-c1cc(Nc2ccc(OC)c(N)c2)ncn1 [Example 62, N^1-[6-(2-Ethoxy-phenyl)-pyrimidin-4-yl]-4-methoxy-benzene-1,3-diamine] | < 1000 nM | good antiviral and antiproliferative activity and a good cytotoxicity profile | 4 µM |  |  |  |
| COc1ccc(Nc2cc(-c3ccc(F)cc3OC)ncn2)cc1N [Example 64] | < 1000 nM | good antiviral and antiproliferative activity and a good cytotoxicity profile | 5 µM | < 1000 nM |  |  |
| CCOc1cc(F)ccc1-c1cc(Nc2ccc(OC)c(N)c2)ncn1 [Example 73, N^1-[6-(2-Ethoxy-4-fluoro-phenyl)-pyrimidin-4-yl]-4-methoxy-benzene-1,3-diamine] | < 1000 nM | good antiviral and antiproliferative activity and a good cytotoxicity profile | 6 µM |  |  |  |
| COc1ccc(Nc2cc(-c3cc(F)ccc3OC)ncn2)cc1N [Example 75, N^1-[6-(5-Fluoro-2-methoxy-phenyl)-pyrimidin-4-yl]-4-methoxy-benzene-1,3-diamine] | < 1000 nM | good antiviral and antiproliferative activity and a good cytotoxicity profile | 10 µM |  |  |  |
| COc1ccc(Nc2cc(-c3ccccc3OC(C)C)ncn2)cc1N [Example 79, N^1-[6-(2-Isopropoxy-phenyl)-pyrimidin-4-yl]-4-methoxy-benzene-1,3-diamine] | < 1000 nM | good antiviral and antiproliferative activity and a good cytotoxicity profile | 15 µM |  |  |  |
| COc1ccc(Nc2cc(-c3cc(F)c(F)cc3OC)ncn2)cc1N [Example 83, N^1-[6-(4,5-Difluoro-2-methoxy-phenyl)-pyrimidin-4-yl]-4-methoxy-benzene-1,3-diamine] | < 1000 nM | good antiviral and antiproliferative activity and a good cytotoxicity profile | 12 µM |  |  |  |
| CCOc1ccc(Nc2cc(-c3ccccc3OC)ncn2)cc1C(N)=O [Example 111, 2-Ethoxy-5-[6-(2-methoxy-phenyl)-pyrimidin-4-ylamino]-benzamide] | < 1000 nM | good antiviral and antiproliferative activity and a good cytotoxicity profile | 12 µM |  |  |  |
| CCOc1ccc(Nc2cc(-c3ccc(F)cc3OC)ncn2)cc1C(N)=O [Example 112, 2-Ethoxy-5-[6-(4-fluoro-2-methoxy-phenyl)-pyrimidin-4-ylamino]-benzamide] |  | good antiviral and antiproliferative activity and a good cytotoxicity profile | 10 µM |  |  | < 1000 nM |
| COc1ccc(Nc2cc(-c3ccc(F)cc3OC)ncn2)cc1O [Example 123, 5-[6-(4-Fluoro-2-methoxy-phenyl)-pyrimidin-4-ylamino]-2-methoxy-phenol] | < 1000 nM | good antiviral and antiproliferative activity and a good cytotoxicity profile | 7 µM |  |  |  |
| COc1ccc(Nc2cc(-c3cc(F)ccc3OC)ncn2)cc1C(N)=O [Example 127, 5-[6-(5-Fluoro-2-methoxy-phenyl)-pyrimidin-4-ylamino]-2-methoxy-benzamide] |  | good antiviral and antiproliferative activity and a good cytotoxicity profile | 7 µM |  |  | < 1000 nM |
| COc1ccc(Nc2cc(-c3ccc(F)cc3OC)ncn2)cc1C(N)=O [Example 128, 5-[6-(4-Fluoro-2-methoxy-phenyl)-pyrimidin-4-ylamino]-2-methoxy-benzamide] | < 1000 nM | good antiviral and antiproliferative activity and a good cytotoxicity profile | 5 µM |  |  |  |
| CCOc1ccccc1-c1cc(Nc2ccc(OC)c(C(N)=O)c2)ncn1 [Example 129, 5-[6-(2-Ethoxy-phenyl)-pyrimidin-4-ylamino]-2-methoxy-benzamide] |  | good antiviral and antiproliferative activity and a good cytotoxicity profile | 5 µM |  |  | < 100 nM |
| CCOc1cc(F)ccc1-c1cc(Nc2ccc(OC)c(C(N)=O)c2)ncn1 [Example 130, 5-[6-(2-Ethoxy-4-fluoro-phenyl)-pyrimidin-4-ylamino]-2-methoxy-benzamide] |  | good antiviral and antiproliferative activity and a good cytotoxicity profile | 15 µM |  |  | < 100 nM |
